# Biological target: T1, human TRPA1 (Homo sapiens, UniProt O75762)
# T1 construct: expressed in transfected cells; host or cells: Human embryonic kidney-derived 293T cells, transiently transfected with the pcDNA3.1/zeo(+) human TRPA1 plasmid
# Assay: Measurement of TRPA1 antagonist activity (intracellular calcium increase, FLIPR, allylisothiocyanate stimulation)
# Format: cell-based
# Settings: allylisothiocyanate 20 μM stimulation, FLIPR calcium assay; read-out: antagonism hTRPA1
# Summary of the method: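 IC50 derives from a sigmoid fit of inhibition of the 5-min FLIPR fluorescence change evoked by 20 μM allylisothiocyanate, normalized between agonist and buffer responses. Test substance, diluted in HBSS/20 mM HEPES pH 7.2 plus 0.1% BSA, was applied 10 min beforehand at room temperature to Calcium4-loaded 293T cells transiently expressing human TRPA1.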
# T1 sequence (O75762 whole entry): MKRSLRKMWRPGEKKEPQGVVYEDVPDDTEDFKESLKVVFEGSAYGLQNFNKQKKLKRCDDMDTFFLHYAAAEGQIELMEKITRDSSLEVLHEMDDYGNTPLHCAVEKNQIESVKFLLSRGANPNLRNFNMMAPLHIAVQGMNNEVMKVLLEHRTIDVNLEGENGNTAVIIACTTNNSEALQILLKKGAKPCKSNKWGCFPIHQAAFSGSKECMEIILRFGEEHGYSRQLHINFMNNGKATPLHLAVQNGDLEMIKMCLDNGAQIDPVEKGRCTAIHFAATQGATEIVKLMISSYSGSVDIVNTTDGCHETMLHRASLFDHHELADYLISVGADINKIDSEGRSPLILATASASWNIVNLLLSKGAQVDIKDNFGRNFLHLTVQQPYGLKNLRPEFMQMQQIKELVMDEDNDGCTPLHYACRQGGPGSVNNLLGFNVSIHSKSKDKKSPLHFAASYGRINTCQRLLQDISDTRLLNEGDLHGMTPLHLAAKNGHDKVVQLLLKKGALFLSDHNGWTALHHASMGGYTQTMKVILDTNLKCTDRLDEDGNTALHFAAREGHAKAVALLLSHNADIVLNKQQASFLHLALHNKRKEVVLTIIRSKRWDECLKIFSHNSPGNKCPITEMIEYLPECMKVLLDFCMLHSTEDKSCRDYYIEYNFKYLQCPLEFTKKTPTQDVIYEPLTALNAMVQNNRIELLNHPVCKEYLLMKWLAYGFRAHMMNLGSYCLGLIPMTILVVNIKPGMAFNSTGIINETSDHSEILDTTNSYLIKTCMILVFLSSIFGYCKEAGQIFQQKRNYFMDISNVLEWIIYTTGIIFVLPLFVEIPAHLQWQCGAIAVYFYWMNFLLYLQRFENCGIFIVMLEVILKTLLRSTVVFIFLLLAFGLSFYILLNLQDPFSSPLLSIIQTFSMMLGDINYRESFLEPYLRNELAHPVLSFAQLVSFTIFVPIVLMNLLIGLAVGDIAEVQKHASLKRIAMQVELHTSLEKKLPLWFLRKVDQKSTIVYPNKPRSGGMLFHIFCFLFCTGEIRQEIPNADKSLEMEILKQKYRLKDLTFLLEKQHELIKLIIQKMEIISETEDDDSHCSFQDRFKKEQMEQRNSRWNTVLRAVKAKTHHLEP
structure (smiles),measurement,value
"O=C(NCc1cccc(OCc2ccc(F)cc2)c1)[C@@H]1CCCN1S(=O)(=O)c1ccc(F)cc1 [Example 121, (2S)-N-[[3-[(4-fluorophenyl)methoxy]phenyl]methyl]-1-(4-fluorophenyl)sulfonyl-pyrrolidine-2-carboxamide]",IC50,31 nM
CC(C)(C)c1ccc(COc2cccc(CNC(=O)[C@@H]3CCCN3S(=O)(=O)c3ccc(F)cc3)c2)cc1 [Example 122],IC50,440 nM
"O=C(NCc1cccc(OCc2cccc(C(F)(F)F)c2)c1)[C@@H]1CCCN1S(=O)(=O)c1ccc(F)cc1 [Example 123, (2S)-1-(4-fluorophenyl)sulfonyl-N-[[3-[[3-(trifluoromethyl)phenyl]methoxy]phenyl]methyl]pyrrolidine-2-carboxamide]",IC50,25 nM
"COc1cccc(COc2cccc(CNC(=O)[C@@H]3CCCN3S(=O)(=O)c3ccc(F)cc3)c2)c1 [Example 124, (2S)-1-(4-fluorophenyl)sulfonyl-N-[[3-[(3-methoxyphenyl)methoxy]phenyl]methyl]pyrrolidine-2-carboxamide]",IC50,130 nM
"CN(C)c1cccc(COc2cccc(CNC(=O)[C@@H]3CCCN3S(=O)(=O)c3ccc(F)cc3)c2)c1 [Example 125, (2S)-N-[[3-[[3-(dimethylamino)phenyl]methoxy]phenyl]methyl]-1-(4-fluorophenyl)sulfonyl-pyrrolidine-2-carboxamide]",IC50,38 nM
"O=C(NCc1cccc(OCc2cccc(N3CCCCC3)c2)c1)[C@@H]1CCCN1S(=O)(=O)c1ccc(F)cc1 [Example 126, (2S)-1-(4-fluorophenyl)sulfonyl-N-[[3-[[3-(1-piperidyl)phenyl]methoxy]phenyl]methyl]pyrrolidine-2-carboxamide]",IC50,38 nM
"O=C(NCc1cccc(OCc2cccc(N3CCOCC3)c2)c1)[C@@H]1CCCN1S(=O)(=O)c1ccc(F)cc1 [Example 127, (2S)-1-(4-fluorophenyl)sulfonyl-N-[[3-[(3-morpholinophenyl)methoxy]phenyl]methyl]pyrrolidine-2-carboxamide]",IC50,130 nM
"O=C(NCc1cccc(OCc2ccccc2F)c1)[C@@H]1CCCN1S(=O)(=O)c1ccc(F)cc1 [Example 128, (2S)-N-[[3-[(2-fluorophenyl)methoxy]phenyl]methyl]-1-(4-fluorophenyl)sulfonyl-pyrrolidine-2-carboxamide]",IC50,120 nM
"CN(C)c1ccccc1COc1cccc(CNC(=O)[C@@H]2CCCN2S(=O)(=O)c2ccc(F)cc2)c1 [Example 129, (2S)-N-[[3-[[2-(dimethylamino)phenyl]methoxy]phenyl]methyl]-1-(4-fluorophenyl)sulfonyl-pyrrolidine-2-carboxamide]",IC50,640 nM
"O=C(NCc1cccc(OCc2ccc(F)c(F)c2)c1)[C@@H]1CCCN1S(=O)(=O)c1ccc(F)cc1 [Example 130, (2S)-N-[[3-[(3,4-difluorophenyl)methoxy]phenyl]methyl]-1-(4-fluorophenyl)sulfonyl-pyrrolidine-2-carboxamide]",IC50,20 nM
"O=C(NCc1cccc(OCc2ccc(Cl)c(F)c2)c1)[C@@H]1CCCN1S(=O)(=O)c1ccc(F)cc1 [Example 131, (2S)-N-[[3-[(4-chloro-3-fluoro-phenyl)methoxy]phenyl]methyl]-1-(4-fluorophenyl)sulfonyl-pyrrolidine-2-carboxamide]",IC50,14 nM
"O=C(NCc1cccc(OCc2cccnc2)c1)[C@@H]1CCCN1S(=O)(=O)c1ccc(F)cc1 [Example 132, (2S)-1-(4-fluorophenyl)sulfonyl-N-[[3-(3-pyridylmethoxy)phenyl]methyl]pyrrolidine-2-carboxamide]",IC50,2600 nM
"O=C(NCc1cccc(OCc2ccncc2)c1)[C@@H]1CCCN1S(=O)(=O)c1ccc(F)cc1 [Example 133, (2S)-1-(4-fluorophenyl)sulfonyl-N-[[3-(4-pyridylmethoxy)phenyl]methyl]pyrrolidine-2-carboxamide]",IC50,4400 nM
"O=C(NCc1cccc(OCc2ccc(C(F)(F)F)nc2)c1)[C@@H]1CCCN1S(=O)(=O)c1ccc(F)cc1 [Example 134, (2S)-1-(4-fluorophenyl)sulfonyl-N-[[3-[[6-(trifluoromethyl)-3-pyridyl]methoxy]phenyl]methyl]pyrrolidine-2-carboxamide]",IC50,38 nM
"O=C(NCc1cccc(OCc2ccnc(C(F)(F)F)c2)c1)[C@@H]1CCCN1S(=O)(=O)c1ccc(F)cc1 [Example 135, (2S)-1-(4-fluorophenyl)sulfonyl-N-[[3-[[2-(trifluoromethyl)-4-pyridyl]methoxy]phenyl]methyl]pyrrolidine-2-carboxamide]",IC50,67 nM
"O=C(NCc1cccc(OCc2cccc(C(F)(F)F)n2)c1)[C@@H]1CCCN1S(=O)(=O)c1ccc(F)cc1 [Example 136, (2S)-1-(4-fluorophenyl)sulfonyl-N-[[3-[[6-(trifluoromethyl)-2-pyridyl]methoxy]phenyl]methyl]pyrrolidine-2-carboxamide]",IC50,140 nM
"O=C(NCc1cccc(OCc2cncc(C(F)(F)F)c2)c1)[C@@H]1CCCN1S(=O)(=O)c1ccc(F)cc1 [Example 137, (2S)-1-(4-fluorophenyl)sulfonyl-N-[[3-[[5-(trifluoromethyl)-3-pyridyl]methoxy]phenyl]methyl]pyrrolidine-2-carboxamide]",IC50,44 nM
"O=C(NCc1cccc(OCc2cncc(Cl)c2)c1)[C@@H]1CCCN1S(=O)(=O)c1ccc(F)cc1 [Example 138, (2S)-N-[[3-[(5-chloro-3-pyridyl)methoxy]phenyl]methyl]-1-(4-fluorophenyl)sulfonyl-pyrrolidine-2-carboxamide]",IC50,110 nM
"O=C(NCc1cccc(OCc2ccoc2)c1)[C@@H]1CCCN1S(=O)(=O)c1ccc(F)cc1 [Example 139, (2S)-1-(4-fluorophenyl)sulfonyl-N-[[3-(3-furylmethoxy)phenyl]methyl]pyrrolidine-2-carboxamide]",IC50,290 nM
"O=C(NCc1cccc(OCc2ccco2)c1)[C@@H]1CCCN1S(=O)(=O)c1ccc(F)cc1 [Example 140, (2S)-1-(4-fluorophenyl)sulfonyl-N-[[3-(2-furylmethoxy)phenyl]methyl]pyrrolidine-2-carboxamide]",IC50,330 nM
"O=C(NCc1cccc(OCc2ccsc2)c1)[C@@H]1CCCN1S(=O)(=O)c1ccc(F)cc1 [Example 141, (2S)-1-(4-fluorophenyl)sulfonyl-N-[[3-(3-thienylmethoxy)phenyl]methyl]pyrrolidine-2-carboxamide]",IC50,89 nM
"O=C(NCc1cccc(OCc2cccs2)c1)[C@@H]1CCCN1S(=O)(=O)c1ccc(F)cc1 [Example 142, (2S)-1-(4-fluorophenyl)sulfonyl-N-[[3-(2-thienylmethoxy)phenyl]methyl]pyrrolidine-2-carboxamide]",IC50,110 nM
"C[C@H](Oc1cccc(CNC(=O)[C@@H]2CCCN2S(=O)(=O)c2ccc(F)cc2)c1)c1ccccc1 [Example 144, (2S)-1-(4-fluorophenyl)sulfonyl-N-[[3-[(1S)-1-phenylethoxy]phenyl]methyl]pyrrolidine-2-carboxamide]",IC50,550 nM
"C[C@@H](Oc1cccc(CNC(=O)[C@@H]2CCCN2S(=O)(=O)c2ccc(F)cc2)c1)c1ccccn1 [Example 146, (2S)-1-(4-fluorophenyl)sulfonyl-N-[[3-[(1R)-1-(2-pyridyl)ethoxy]phenyl]methyl]pyrrolidine-2-carboxamide]",IC50,9800 nM
"C[C@H](Oc1cccc(CNC(=O)[C@@H]2CCCN2S(=O)(=O)c2ccc(F)cc2)c1)c1ccccn1 [Example 147, (2S)-1-(4-fluorophenyl)sulfonyl-N-[[3-[(1S)-1-(2-pyridyl)ethoxy]phenyl]methyl]pyrrolidine-2-carboxamide]",IC50,8300 nM
"O=C(NCc1cccc(OCCc2ccccc2)c1)[C@@H]1CCCN1S(=O)(=O)c1ccc(F)cc1 [Example 148, (2S)-1-(4-fluorophenyl)sulfonyl-N-[(3-phenethyloxyphenyl)methyl]pyrrolidine-2-carboxamide]",IC50,340 nM
"O=C(NCc1cccc(OCc2ccc(C(F)(F)F)nc2)c1)[C@@H]1CCCN1S(=O)(=O)c1ccco1 [Example 149, (2S)-1-(2-furylsulfonyl)-N-[[3-[[6-(trifluoromethyl)-3-pyridyl]methoxy]phenyl]methyl]pyrrolidine-2-carboxamide]",IC50,240 nM
"O=C(NCc1cccc(OCc2ccnc(C(F)(F)F)c2)c1)[C@@H]1CCCN1S(=O)(=O)c1ccco1 [Example 150, (2S)-1-(2-furylsulfonyl)-N-[[3-[[2-(trifluoromethyl)-4-pyridyl]methoxy]phenyl]methyl]pyrrolidine-2-carboxamide]",IC50,110 nM
"O=C(NCc1ccc(Oc2cccc(C(F)(F)F)c2)cc1)[C@@H]1C=CCN1S(=O)(=O)c1ccc(F)cc1 [Example 151, (2S)-1-(4-fluorophenyl)sulfonyl-N-[[4-[3-(trifluoromethyl)phenoxy]phenyl]methyl]-2,5-dihydropyrrole-2-carboxamide]",IC50,290 nM
"O=C(NCc1ccc(Oc2cccc(C(F)(F)F)c2)cc1)[C@@H]1CCCN1S(=O)(=O)c1ccco1 [Example 152, (2S)-1-(2-furylsulfonyl)-N-[[4-[3-(trifluoromethyl)phenoxy]phenyl]methyl]pyrrolidine-2-carboxamide]",IC50,460 nM
"O=C(NCc1ccc(Oc2cccc(C(F)(F)F)c2)cc1)[C@@H]1CCCN1S(=O)(=O)c1ccoc1 [Example 153, (2S)-1-(3-furylsulfonyl)-N-[[4-[3-(trifluoromethyl)phenoxy]phenyl]methyl]pyrrolidine-2-carboxamide]",IC50,310 nM
"O=C(NCc1ccc(Oc2cccc(C(F)(F)F)c2)cc1)[C@@H]1CCCN1S(=O)(=O)c1ccsc1 [Example 154, (2S)-1-(3-thienylsulfonyl)-N-[[4-[3-(trifluoromethyl)phenoxy]phenyl]methyl]pyrrolidine-2-carboxamide]",IC50,180 nM
"O=C(NCc1ccc(Oc2ccnc(C(F)(F)F)c2)cc1)[C@@H]1CCCN1S(=O)(=O)c1ccco1 [Example 155, (2S)-1-(2-furylsulfonyl)-N-[[4-[[2-(trifluoromethyl)-4-pyridyl]oxy]phenyl]methyl]pyrrolidine-2-carboxamide]",IC50,5700 nM

# Source: US20150284375A1 (AJINOMOTO CO., INC., priority 2012, published 2015)
